Calls of active or inactive are those of the source. No cut-off for these calls is given here.
Assays:
[1] = target: T1, Putative agmatine deiminase (Streptococcus mutans serotype c (strain ATCC 700610 / UA159)) (UniProt Q8DW17); assay: Binding affinity to Streptococcus mutans agmatine deiminase expressed in Escherichia coli assessed as enzyme photo labeling at 2 to 10 uM after 45 mins by coomassie blue staining based SDS-PAGE method
T1 sequence (whole entry): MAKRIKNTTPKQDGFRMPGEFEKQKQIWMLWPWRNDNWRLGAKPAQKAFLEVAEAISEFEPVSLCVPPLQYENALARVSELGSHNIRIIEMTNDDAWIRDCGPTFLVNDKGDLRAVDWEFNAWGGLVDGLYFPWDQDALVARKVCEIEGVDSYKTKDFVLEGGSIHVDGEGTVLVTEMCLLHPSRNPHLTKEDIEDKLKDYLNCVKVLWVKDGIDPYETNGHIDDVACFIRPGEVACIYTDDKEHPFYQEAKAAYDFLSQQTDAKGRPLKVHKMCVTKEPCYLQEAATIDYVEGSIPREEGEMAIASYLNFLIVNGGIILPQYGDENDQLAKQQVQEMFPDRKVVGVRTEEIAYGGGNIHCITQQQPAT

[2] = target: T1, Putative agmatine deiminase (Streptococcus mutans serotype c (strain ATCC 700610 / UA159)); assay: Binding affinity to Streptococcus mutans agmatine deiminase expressed in Escherichia coli assessed as enzyme photo labeling at 10 uM pre-treated with 10 uM ABCA for 45 mins by coomassie blue staining based gel electrophoresis method
[3] = target: T1, Putative agmatine deiminase (Streptococcus mutans serotype c (strain ATCC 700610 / UA159)); assay: Binding affinity to Streptococcus mutans agmatine deiminase expressed in Escherichia coli assessed as enzyme level detected by compound at 10 uM after 45 mins by coomassie blue staining based gel electrophoresis method
[4] = target: T1, Putative agmatine deiminase (Streptococcus mutans serotype c (strain ATCC 700610 / UA159)); assay: Binding affinity to Streptococcus mutans agmatine deiminase expressed in Escherichia coli assessed as enzyme photo labeling at 2 to 10 uM by coomassie blue staining based gel electrophoresis method
[5] = target: T1, Putative agmatine deiminase (Streptococcus mutans serotype c (strain ATCC 700610 / UA159)); assay: Binding affinity to Streptococcus mutans agmatine deiminase expressed in Escherichia coli assessed as enzyme photo labeling at 10 uM after 45 mins by coomassie blue staining based gel electrophoresis method
[6] = target: T1, Putative agmatine deiminase (Streptococcus mutans serotype c (strain ATCC 700610 / UA159)); assay: Binding affinity to Streptococcus mutans agmatine deiminase in presence of Escherichia coli cell lysates assessed as enzyme photo labeling at 10 uM after 45 mins by coomassie blue staining based gel electrophoresis method
[7] = target: T1, Putative agmatine deiminase (Streptococcus mutans serotype c (strain ATCC 700610 / UA159)); assay: Binding affinity to Streptococcus mutans agmatine deiminase in presence of Escherichia coli cell lysates assessed as enzyme level detected by compound at 10 uM after 45 mins by coomassie blue staining based gel electrophoresis method
[8] = target: T2, Putative agmatine deiminase (Streptococcus mutans serotype c (strain ATCC 700610 / UA159), UniProt Q8DW17); assay: Inhibition of Streptococcus mutans agmatine deiminase expressed in Escherichia coli pre-incubated for 15 mins before agmatine substrate addition
T2 sequence (Q8DW17 whole entry): T1 sequence (whole entry)

| Activity [1] | Activity [2] | Activity [3] | Activity [4] | Activity [5] | Activity [6] | Activity [7] | Compound | IC50 [8] |
| --- | --- | --- | --- | --- | --- | --- | --- | --- |
| Active | inactive | 1 pmol | Active | Active | Active | 0.5 pmol | N=C(CCl)NCCCCNCCCCCNC(=S)Nc1ccc(-c2c3ccc(=O)cc-3oc3cc(O)ccc23)c(C(=O)O)c1 | 10.6 µM |
| – | – | – | – | – | – | – | N=C(CCl)NCCCCN | 0.26 µM |
